Assay results reported in patent US20220378744A1, “COMPOUNDS FOR TREATING PROLIFERATOR-ACTIVATED RECEPTORS (PPAR) MEDIATED DISEASES OR CONDITIONS” (MEDIPURE PHARMACEUTICALS INC., priority 2021, published 2022).

Key:
[1] = tested on: IMQ-induced psoriasis in BALB/c mice; test: IMQ-induced psoriasis model in BALB/c mice, topical creams, PASI score; format: in vivo
Description: The animal experiment is conducted in accordance with the Guidelines for the Institutional Animal Care and Use Committee. Both male and female BALB/c mice from Rodenta Bioserve, India, at 7-8 weeks of age and 20-25 gram of body weight are housed in a laboratory environment with constant temperature (24.0±1.0° C.) and relative humidity (45.0-55.0%) on a 12 h light/dark cycles. These animals are provided free access to unlimited amounts of food and water during the entire experiment. The animals are divided into 12 groups of 8 mice each and shaved on the back on day 0 for an area of 2×2 cm . Human-like psoriasis in mice is induced by topical application of 5% Imiquimod (IMQ) procured from AK Scientific, USA, and formulated in the base cream at desired percentages in-house, in shaved area and right ear (0.5×0.5 cm). […] Vehicle, clobetasol propionate (CP, Sigma. 0.05% w/w; positive control), test creams, and CBD (Ilesol Pharmaceuticals), respectively, is applied topically on both the shaved back (80 mg cream) and the right ear (20 mg cream) of mice, once daily from day 10 to day 16. The study ends at day 17. At stated time points the severity of psoriasis is evaluated using the PASI score (Psoriasis Area Severity Index: sum of erythema, scaling and thickening, scored independently from 0 to 4 for each mouse; max PASI score=12). Tissue and blood samples are collected for histopathology, biochemistry and immunoassay from each animal at various points.

human PPARα (NR1C1) = target: T1, human PPARα (NR1C1) (Homo sapiens, UniProt Q07869); test: Cell-based human PPARα transactivation (nuclear receptor reporter) assay; conditions: for PPARα transactivation: concentration at which (or starting at which) active: luciferase reporter cells, 24 h treatment, FIG. 1; for activating PPARα: at 10 μM
T1 sequence (Q07869 1-468): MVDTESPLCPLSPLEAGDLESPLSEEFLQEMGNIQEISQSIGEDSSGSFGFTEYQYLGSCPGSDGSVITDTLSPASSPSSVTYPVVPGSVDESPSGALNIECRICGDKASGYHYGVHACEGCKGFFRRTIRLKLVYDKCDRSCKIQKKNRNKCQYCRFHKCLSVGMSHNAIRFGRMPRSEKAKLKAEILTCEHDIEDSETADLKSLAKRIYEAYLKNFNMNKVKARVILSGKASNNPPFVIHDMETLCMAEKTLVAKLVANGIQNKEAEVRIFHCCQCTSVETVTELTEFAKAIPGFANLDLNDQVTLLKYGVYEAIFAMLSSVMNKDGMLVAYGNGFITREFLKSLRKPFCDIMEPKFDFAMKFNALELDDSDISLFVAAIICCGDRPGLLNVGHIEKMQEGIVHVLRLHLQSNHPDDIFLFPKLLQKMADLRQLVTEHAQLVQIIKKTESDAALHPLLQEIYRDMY
Description: (§1) The assay was performed using cell-based human PPAR nuclear receptor reporter assay kits (NR1C1 for PPARα; NR1C2 for PPARδ/β, and NR1C3 for PPARγ, Indigo Biosciences) by following the manufacturer's instruction. In brief, PPAR reporter cells were added to CRM medium (Indigo Biosciences), seeded into wells of a 96-well culture plate and incubated for 5 hours in a cell culture incubator at 37° C. with 5% CO2. The medium was then removed, and the cells were treated with test compounds at different concentrations in CSM medium (Indigo Biosciences) for 24 h inside the incubator. […] DMSO (Sigma) at 0.1% (v/v) was used as negative baseline control (C). Each treatment was tested in duplicate wells. At the end point of the experiments, the treatment medium was discarded and Luciferase Detection Reagent (Indigo Biosciences) was added. Following a 10-minute rest period, the intensity of light emission (in units of “Relative Light Units; RLU”) from each assay well was quantified using a plate-reading luminometer (Synergy H1 plate reader, BioTek). In addition, live cell multiplex assay (Indigo Biosciences) was combined with the activation assays to detect potential cytotoxic effect, if any, of the test chemicals to normalize the signals as per manufacturer's instruction.

human PPARγ (NR1C3) = target: T2, human PPARγ (NR1C3) (Homo sapiens, UniProt P37231); test: Cell-based human PPARγ transactivation (nuclear receptor reporter) assay; conditions: for activating PPARγ: at 1 μM
T2 sequence (P37231 1-505): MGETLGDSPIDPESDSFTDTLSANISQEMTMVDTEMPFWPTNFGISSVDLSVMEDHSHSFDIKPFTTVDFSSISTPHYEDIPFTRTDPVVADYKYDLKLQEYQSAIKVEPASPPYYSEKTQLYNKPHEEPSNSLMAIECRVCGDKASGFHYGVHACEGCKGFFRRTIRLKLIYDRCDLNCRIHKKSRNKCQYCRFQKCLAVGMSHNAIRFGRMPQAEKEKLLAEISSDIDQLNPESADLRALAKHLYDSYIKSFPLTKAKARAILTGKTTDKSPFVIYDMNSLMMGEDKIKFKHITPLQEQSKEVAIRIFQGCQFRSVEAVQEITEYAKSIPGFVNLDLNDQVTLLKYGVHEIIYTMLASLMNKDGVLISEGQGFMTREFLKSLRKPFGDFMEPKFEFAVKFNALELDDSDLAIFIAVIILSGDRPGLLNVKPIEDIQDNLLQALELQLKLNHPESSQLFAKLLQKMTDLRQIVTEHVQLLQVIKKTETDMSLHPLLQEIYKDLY
Description: as §1

[2] = tested on: IMQ-stimulated HaCaT cells; test: Anti-inflammatory effect, IMQ-stimulated HaCaT cell model (IL-6, IL-8 ELISA); format: cell-based, human; conditions: IMQ 50 μM, 24 h, vs control
Description: (§2) Three in vitro models based on HaCaT cell culture were tested. HaCaT cells were maintained as described above in DMEM high glucose (4.5g/L) medium supplemented with 10% FBS and 1% (v/v) penicillin/streptomycin solution (Invitrogen, Thermo Fisher) and kept in an incubator at 37° C. with 5% CO2. For experiments, the cells were seeded at 5×10^4 cells/well in 1 mL of medium to a 24-well culture plate (Nunc, Thermo Fisher) and incubated overnight.
(§3) (1) For the imiquimod (IMQ)-stimulated HaCaT model, IMQ (Alfa Aesar) at 50 μM final concentration was used in the experiments; (2) for TNFα/IL-17A-stimulated-HaCaT model, 2 ng/mL of each cytokine (R&D Systems) was used; and (3) for the lipopolysaccharide (LPS, Sigma) simulated HaCaT cell model, 20 μg/mL LPS was used. For drug chemical treatment the old medium in the culture plates described above was discarded and the corresponding stimulant (IMQ, TNFα/IL-17A, or LPS) with or without test chemicals in 0.5 mL fresh medium was added to each cell well. There were duplicate wells for each treatment. The plate was incubated for another 24 h and the supernatant was collected for cytokine analysis, namely IL-6 and IL-8, using the corresponding ELISA kits (Thermo Fisher).

[3] = tested on: LPS-stimulated HaCaT cells; test: Anti-inflammatory effect, LPS-stimulated HaCaT cell model (IL-6, IL-8 ELISA); format: cell-based, human; conditions: LPS 20 μg/mL, 24 h
Description: as §2
as §3, with “Fisher). The experiments were repeated independently to confirm the observation.” for “Fisher).”

CCC(=O)O[C@]1(C(=O)CCl)[C@@H](C)C[C@H]2[C@@H]3CCC4=CC(=O)C=C[C@]4(C)[C@@]3(F)[C@@H](O)C[C@@]21C [CP, clobetasol propionate, reference compound]
reducing the PASI score ([1]; 0.05% w/w cream, once daily day 10 to day 16, FIG. 11): effective

Cc1nc(-c2ccc(C(F)(F)F)cc2)sc1C(=O)NCc1ccc(OC(C)(C)C(=O)O)cc1 [GW590375, reference compound]
PPARα transactivation: concentration at which (or starting at which) active (human PPARα (NR1C1)): 0.001 µM

CCCc1cc(C(=O)c2ccc(-c3ccccc3)cc2)ccc1OCCOc1ccc2c(cnn2C(OCC)C(=O)O)c1 (stereo not drawn) [KV 196, 2-(5-(2-(4-([1,1′-biphenyl]-4-carbonyl)-2-propylphenoxy)ethoxy)-1H-indazol-1-yl)-2-ethoxyacetic acid]
activating PPARα (human PPARα (NR1C1)): not effective
activating PPARγ (human PPARγ (NR1C3)): highly effective

CCCc1cc(C(=O)c2ccc(F)cc2)ccc1OCCCOc1ccc2c(cnn2C(OCC)C(=O)OC)c1 (stereo not drawn) [KV-157, methyl 2-ethoxy-2-(5-(3-(4-(4-fluorobenzoyl)-2 propylphenoxy)propoxy)-1H-indazol-1-yl)acetate]
activating PPARα (human PPARα (NR1C1)): not effective
activating PPARγ (human PPARγ (NR1C3)): highly effective

CCCc1cc(C(=O)c2ccc(F)cc2)ccc1OCCOc1ccc2c(cnn2C(OCC)C(=O)OCC)c1 (stereo not drawn) [KV-163A, ethyl 2-ethoxy-2-(5-(2-(4-(4-fluorobenzoyl)-2-propylphenoxy)ethoxy)-1H-indazol-1-yl)acetate]
activating PPARα (human PPARα (NR1C1)): not effective
activating PPARγ (human PPARγ (NR1C3)): highly effective

CCCc1cc(C(=O)c2ccc(-c3ccccc3)cc2)ccc1OCCCOc1ccc2c(cnn2C(OCC)C(=O)OCC)c1 (stereo not drawn) [KV-165, ethyl 2-(5-(3-(4-([1,1′-biphenyl]-4-carbonyl)-2-propylphenoxy)propoxy)-1H-indazol-1-yl)-2-ethoxyacetate]
activating PPARα (human PPARα (NR1C1)): not effective
activating PPARγ (human PPARγ (NR1C3)): highly effective

CCCc1cc(C(=O)c2ccc(-c3ccccc3)cc2)ccc1OCCCOc1ccc2c(cnn2C(OCC)C(=O)O)c1 (stereo not drawn) [KV-180, 2-(5-(3-(4-([1.1′-biphenyl]-4-carbonyl)-2-propylphenoxy)propoxy)-1H-indazol-1-yl)-2-ethoxyacetic acid]
activating PPARα (human PPARα (NR1C1)): not effective
activating PPARγ (human PPARγ (NR1C3)): highly effective

CCCc1cc(C(=O)c2ccc(F)cc2)ccc1OCCOc1ccc2c(cnn2C(OCC)C(=O)O)c1 (stereo not drawn) [KV-192, 2-ethoxy-2-(5-(2-(4-(4-fluorobenzoyl)-2-propylphenoxy)ethoxy)-1H-indazol-1-yl)acetic acid]
activating PPARα (human PPARα (NR1C1)): not effective
concentration at which PPARγ was activated (human PPARγ (NR1C3)): 10 µM

CCCc1cc(C(=O)c2ccc(-c3ccccc3)cc2)ccc1OCCOc1ccc2c(cnn2C(OCC)C(=O)OCC)c1 (stereo not drawn) [KV-194A, Ethyl 2-(5-(2-(4-([1,1,′-biphenyl]-4-carbonyl)-2-propylphenoxy)ethoxy)-1H-indazol-1-yl)-2-ethoxyacetate]
activating PPARα (human PPARα (NR1C1)): not effective
activating PPARγ (human PPARγ (NR1C3)): highly effective

CCCc1cc(C(=O)c2ccc(-c3ccccc3)cc2)ccc1OCCCOc1ccc2c(cnn2CC(=O)O)c1 [MP-151, 2-(5-(3-(4-([1,1′-biphenyl]-4-carbonyl)-2-propylphenoxy)propoxy)-1H-indazol-1-yl)acetic acid]
PPARα transactivation: concentration at which (or starting at which) active (human PPARα (NR1C1)): 5 µM
production of IL-6 ([2]; compound at 2.5 μM): significantly inhibited
production of IL-6 ([2]; compound at 25 μM): significantly inhibited
reduction of IL-8 production compared with rosiglitazone and fenofibrate ([3]; 25 μM): more active
production of IL-6 ([3]; compound at 25 uM): reduced
tolerability in mice ([1]; topical, seven-day consecutive treatment, even at 10% creams): well tolerated
visual damage on the skin ([1]; topical, seven-day consecutive treatment, up to 10% creams): No visual damage

CCCc1cc(C(=O)c2ccc(-c3ccccc3)cc2)ccc1OCCCOc1ccc2c(cnn2CC(=O)OC)c1 [MP-153, methyl 2-(5-(3-(4-([1,1′-biphenyl]-4-carbonyl)-2-propylphenoxy)propoxy)-1H-indazol-1-yl)acetate]
PPARα transactivation: concentration at which (or starting at which) active (human PPARα (NR1C1)): 5 µM
production of IL-6 ([2]; compound at 2.5 μM): significantly inhibited
production of IL-6 ([2]; compound at 25 μM): significantly inhibited

CCCc1cc(C(=O)c2ccc(F)cc2)ccc1OCCCOc1ccc2c(cnn2CC(=O)O)c1 [MP-154, 2-(5-(3-(4-(4-fluorobenzoyl)-2-propylphenoxy)propoxy)-1H-indazol-1-yl)acetic acid]
PPARα transactivation: concentration at which (or starting at which) active (human PPARα (NR1C1)): 1 µM
PPARγ transactivation: concentration at which (or starting at which) active (human PPARγ (NR1C3); FIG. 3): 1,000 nM
production of IL-6 ([2]; compound at 2.5 μM): no anti-inflammatory effect
production of IL-6 ([2]; compound at 25 μM): significantly inhibited
